Laboratory results from patent US20240382477A1, “NITROGEN-CONTAINING HETEROCYCLIC PYRIDINE COMPOUND” (SHANGHAI ZHEYE BIOTECHNOLOGY CO. LTD., priority 2021, published 2024).
Where two headings read alike, the source gives them in different places.

Assays:
[1] = test system: psoriasis-like mouse model induced by imiquimod; assay: Efficacy test in psoriasis-like mouse model induced by imiquimod (PASI score); assay type: in vivo, Balb/c mice
Protocol: Experimental animal: Balb/c mice.
• (1) negative control group (applying Vaseline, administering solvent intragastrically), • (2) model control group [applying imiquimod (IMQ)], • (3) administration group (applying IMQ, administering Compound 7, Compound 8, Compound 9, Compound 10, and Compound No. 146 intragastrically); • wherein, “Compound No. 146” refers to the compound in Example 146 of reference WO2014074661, which was prepared according to the method described therein.
(§1) Administration dosage and method: 20 mg/kg, BID, intragastric administration.
Experiment process: On Day 0, the animals were subjected to hair shaving on the test area of the back, and then they were grouped. From Day 1 to Day 7, one hour after the first administration in every morning, 40 mg of 5% imiquimod cream was applied once to the test area on the back, after that, a second administration was conducted on the same day. The skin lesion symptoms of psoriasis and efficacy were evaluated through Psoriasis Area and Severity Index (PASI) score (erythema, scale, thickening degree). The higher the score, the more severe the symptoms are.
PASI score results on day 7 are listed in the table below, wherein, • “+” represents a score of ≥6; • “++” represents a score of greater than 5 and less than 6; • “+++” represents a score of greater than 4 and less than or equal to 5; • “++++” represents a score of less than or equal to 4.
By using the same scheme as test example 1, pharmaceutical efficacy in psoriasis-like mouse model induced by imiquimod was studied.
By using the same scheme as test example 1, pharmaceutical efficacy in psoriasis-like mouse model induced by imiquimod was studied. PASI score results on Day 7 are listed in the table below, wherein, • “+” represents a score of ≥6; • “++” represents a score of greater than 5 and less than 6; • “+++” represents a score of greater than 4 and less than or equal to 5; • “++++” represents a score of less than or equal to 4.

[2] = test system: IL-17F; assay: Rat model with increased IL-17 induced by imiquimod, intragastric administration; assay type: in vivo, SD rats; conditions: for skin lesions in rats: after treatment by intragastric administration
Protocol: Experimental animal: 8 to 10-week old SD rats, half male and half female.
• (1) negative control group (applying Vaseline, administering solvent intragastrically), • (2) model control group [applying imiquimod (IMQ)], • (3) administration group (applying IMQ, administering the compounds of the present invention intragastrically).
as §1
Model establishment: SD rat was subjected to application of 40 mg of imiquimod ointment on its back skin once a day to construct the rat model. […]
By using the same scheme as biological test example 8, the efficacy of the compounds of the present invention was evaluated, and the following test results were obtained: […]

[3] = target: TYK2-JH2 (Homo sapiens, UniProt P29597); assay: Enzymology experiment in vitro: TYK2-JH2 binding (Tb antibody/Tracer fluorescence ratio); conditions: for IC50: read-out: TYK2-JH2 binding inhibitory activity (IC50 value)
Sequence of TYK2-JH2 (P29597 589-875 limits assumed): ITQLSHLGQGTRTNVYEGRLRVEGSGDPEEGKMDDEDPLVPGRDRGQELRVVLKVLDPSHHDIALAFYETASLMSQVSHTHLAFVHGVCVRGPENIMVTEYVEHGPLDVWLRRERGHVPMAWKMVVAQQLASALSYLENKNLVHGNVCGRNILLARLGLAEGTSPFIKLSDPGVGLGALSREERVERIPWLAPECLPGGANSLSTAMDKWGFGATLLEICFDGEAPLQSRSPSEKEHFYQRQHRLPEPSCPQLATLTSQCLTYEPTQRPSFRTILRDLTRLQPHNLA

[4] = test system: pSTAT5 expression in CD3+ cells; assay: Inhibition of pSTAT5 expression in CD3+ cells of IFN-alpha stimulated human PBMC by FACS; assay type: cell-based; conditions: read-out: Inhibitory activity on p-STAT5 expression (IC50 value)
Protocol: Compound dilution and preparation: The test compound was prepared into a 10 mM solution using DMSO, and diluted in DMSO to obtain a solution with a gradient of different concentrations which was 500 times of the final concentration. 5 μL of the diluted compound was transferred into 120 μL of PBS solution containing 0.1% BSA. Positive and negative control groups were set up with 0.2% DMSO ultimately contained in each group.
• 1) Human PBMC cells were added into a 96-well cell culture plate, with 0.5 million cells and a volume of 67.5 μL per well. • 2) 3.5 μL of the diluted compound was added and mixed evenly. • 3) The incubation was carried out in a 37° C. incubator for 60 minutes. • 4) IFN-alpha was diluted to 600 ng/ml in DPBS containing 0.1% BSA. After the above 60-minute incubation, 5 μL of PE-anti-hCD3 antibody was added into each well, then 4 μL of the diluted IFN-alpha was also added into each well. • 5) The incubation was carried out in a 37° C. incubator for 30 minutes. • 6) All cells were transferred into a 96-deep-well plate and added with 1 mL of Lyse/fix buffer preheated at 37° C. • 7) The incubation was carried out in dark at 37° C. for 10 minutes. • 8) The plate was centrifuged at 600 g for 5 minutes with the supernatant abandoned, then washed twice with 1 mL of PBS and centrifuged. • 9) 1 mL of Perm buffer III was added into the cell precipitation. • 10) The incubation was carried out in dark at 4° C. for 30 minutes. • 11) The plate was centrifuged at 600 g for 5 minutes with the supernatant abandoned, then washed twice with 1 mL of PBS and centrifuged. • 12) APC anti-human pSTAT5 antibody was diluted 200 times in Staining buffer, then added into the cell wells with 100 μL per well, and mixed evenly. • 13) The incubation was carried out at room temperature for 40 minutes. • 14) The plate was washed twice with 1 mL of Staining buffer per well, and centrifuged at 600 g for 5 minutes. • 15) After the supernatant was abandoned, the cell precipitation was resuspended in 300 μL of Staining buffer. • 16) The sample was loaded and analyzed in a Beckman CytoFlex flow cytometer.

[5] = Pharmacokinetic study in vivo; conditions: rat, plasma; male SD rats; 1 mg/kg IV, 10 mg/kg PO (intragastric), single administration; read-out: Absolute bioavailability(F %)
Protocol: Experimental animal: 8 to 10 week-old male SD rats, fasted 12 hours before administration. Intragastric administration: mixed solution (ethanol+TPGS+PEG300=5:5:90) was used as the administration solvent. Injection administration: mixed solution (PEG400+ddH20=80:20) was used as the administration solvent. Administration capacity: 5 ml/kg. Animal grouping: intravenous IV group and intragastric PO group, with 3 male SD rats in each group. Administration route and dosage: 1 mg/kg for intravenous IV group; 10 mg/kg for intragastric PO group. Administration frequency: single administration. • IV blood collection points: 5 minutes, 15 minutes, 30 minutes, 1 hour, 2 hours, 4 hours, 6 hours, 8 hours, and 24 hours after administration; • PO blood collection points: 15 minutes, 30 minutes, 1 hour, 2 hours, 4 hours, 6 hours, 8 hours, and 24 hours after administration. The whole blood of rat was centrifuged at 10000 rpm for 5 minutes to separate plasma, which was stored at 4° C. 0.1 ml of the plasma was taken, added with 0.2 ml of acetonitrile, vortexed for 1 minute, and centrifuged at 10000 rpm for 5 minutes to take the supernatant, which was sent for analysis of drug content after 0.22 μm filtration.

[6] = Test Example 6, same scheme as test example 1, day 7
[7] = Test Example 9, same scheme as test example 8
[8] = human PBMC, CD3+ cells, IFN-alpha stimulation, FACS
[9] = Test Example 1, Balb/c mice, imiquimod, 20 mg/kg BID intragastric, day 7, higher score = more severe
[10] = Test Example 8, SD rats, imiquimod, 20 mg/kg BID intragastric, day 6

Row | Compound | PASI score [1, 6] | IC50 [3] [nM] | other results
1 | [2H]C([2H])([2H])NC(=O)c1nnc(NC(=N)C2CC2)cc1Nc1cccc(-c2ncn(C)n2)c1OC [Compound 1-1-1] | + (a score of ≥6) | – | Content level of IL-17F in skin [2, 7]: D (an IL-17F content ranging from 300 pg/mL to 400 pg/mL)
2 | [2H]C([2H])([2H])NC(=O)c1nnc(NC(=O)C2CC2)cc1Nc1cccc(-c2ncn(COCC[Si](C)(C)C)n2)c1OC [Compound 1-3] | ++ (a score of greater than 5 and less than 6) | – | –
3 | [2H]C([2H])([2H])NC(=O)c1nnc(NC(=O)C2CC2)cc1Nc1cccc(-c2ncn(CCNC(C)=S)n2)c1OC [Compound 1-4] | ++ (a score of greater than 5 and less than 6) | – | –
4 | [2H]C([2H])([2H])NC(=O)c1nnc(NC(=O)C2CC2)cc1Nc1cccc(-n2cccn2)c1OC [Compound 1-5] | ++ (a score of greater than 5 and less than 6) | – | –
5 | [2H]C([2H])([2H])NC(=O)c1nnc(NC(=O)C2CC2)cc1Nc1cccc(-n2ccnn2)c1OC [Compound 1-6] | ++ (a score of greater than 5 and less than 6) | – | –
6 | [2H]C([2H])([2H])NC(=O)c1nnc(NC(=O)C2CC2)cc1Nc1cccc(-c2ncn(C3(C(=O)OC)CC3)n2)c1OC [Compound 1-7] | ++ (a score of greater than 5 and less than 6) | – | –
7 | [2H]C([2H])([2H])NC(=O)c1nnc(NS(=O)(=O)C2CC2)cc1Nc1cccc(-c2ncn(C)n2)c1OC [Compound 1-8] | + (a score of ≥6) | – | –
8 | [2H]C([2H])([2H])NC(=O)c1nnc(NC(=O)C=C)cc1Nc1cccc(-c2ncn(C)n2)c1OC [Compound 1-9] | + (a score of ≥6) | – | –
9 | [2H]C([2H])([2H])NC(=O)c1nnc(NC(=S)C2CC2)cc1Nc1nccc(-c2ncn(C)n2)c1OC [Compound 2-1A-1] | ++++ (a score of less than or equal to 4) | < 0.1 | IC50 [4, 8]: < 1 nM; Content level of IL-17F in skin [2, 7]: A (an IL-17F content less than 30 pg/mL); skin lesions in rats [2]: significantly reduced
10 | [2H]C([2H])([2H])NC(=O)c1nnc(NC(=O)C2CC2)cc1Nc1cccc(-c2nnn(CC#C)n2)c1OC [Compound 2-1B-1] | ++ (a score of greater than 5 and less than 6) | 0.1 to 0.5 | IC50 [4, 8]: 5 to 10 nM
11 | [2H]C([2H])([2H])NC(=O)c1nnc(NC(=O)C2CC2)nc1Nc1cccc(-c2ncn(CC#C)n2)c1OC [Compound 2-1B-2] | ++ (a score of greater than 5 and less than 6) | 0.5 to 1 | IC50 [4, 8]: 5 to 10 nM
12 | [2H]C([2H])([2H])NC(=O)c1nnc(NC(=O)C2CC2)cc1Nc1cccc(-c2ccn(CC#C)n2)c1OC [Compound 2-1B-7] | ++ (a score of greater than 5 and less than 6) | 0.1 to 0.5 | IC50 [4, 8]: 5 to 10 nM
13 | [2H]C([2H])([2H])NC(=O)c1nnc(NC(=O)C2CC2)cc1Nc1nccc(-c2ncn(CC#C)n2)c1OC [Compound 7] | ++++ (a score of less than or equal to 4) | < 0.1 | PASI score [1, 9]: ++++ (a score of less than or equal to 4); IC50 ([4]; Homo sapiens, PBMC): < 1 nM; Content level of IL-17F in skin [2, 10]: A (an IL-17F content less than 30 pg/mL); skin lesions in rats [2]: significantly reduced
14 | [2H]C([2H])([2H])NC(=O)c1nnc(NC(=O)C2CC2)cc1Nc1nccc(-c2ncn(C([2H])([2H])C#C)n2)c1OC [Compound 8] | ++++ (a score of less than or equal to 4) | < 0.1 | PASI score [1, 9]: ++++ (a score of less than or equal to 4); IC50 ([4]; Homo sapiens, PBMC): < 1 nM
15 | [2H]C#CC([2H])([2H])n1cnc(-c2ccnc(Nc3cc(NC(=O)C4CC4)nnc3C(=O)NC([2H])([2H])[2H])c2OC)n1 [Compound 9] | ++++ (a score of less than or equal to 4) | < 0.1 | PASI score [1, 9]: ++++ (a score of less than or equal to 4); IC50 ([4]; Homo sapiens, PBMC): < 1 nM
16 | [2H]C([2H])([2H])NC(=O)c1nnc(NC(=O)C2CC2([2H])[2H])cc1Nc1nccc(-c2ncn(CC#C)n2)c1OC (centres unmarked) [Compound 10] | – | – | PASI score [1, 9]: ++++ (a score of less than or equal to 4); effect on the activity of TYK2-JH2 (in words) [3]: have inhibitory effects on the activity of TYK2-JH2; IC50 ([4]; Homo sapiens, PBMC): < 1 nM
17 | [2H]C([2H])([2H])NC(=O)c1nnc(NC(=O)C2([2H])CC2)cc1Nc1nccc(-c2ncn(CC#C)n2)c1OC [Compound 11] | ++++ (a score of less than or equal to 4) | < 0.1 | PASI score ([1]; Test Example 2, same scheme as test example 1, day 7): ++++ (a score of less than or equal to 4); IC50 ([4]; Homo sapiens, PBMC): < 1 nM; bioavailability [5]: 97.8%; Content level of IL-17F in skin [2, 10]: A (an IL-17F content less than 30 pg/mL); skin lesions in rats [2]: significantly reduced
